Experimental data: article PMC8805583, “Discovery of Herbacetin as a Novel SGK1 Inhibitor to Alleviate Myocardial Hypertrophy” (Advanced Science, 2021)

Assays:
[1] = test system: primary rat cardiomyocytes; assay: Phenylephrine (PE)-induced hypertrophy in primary cardiomyocytes (phalloidin cell area, RT-PCR, western blot); format: cell-based
Method: The magnitude of cardiac hypertrophy was then evaluated by directly measuring the cell area after Alexa Fluor 488 phalloidin staining.
Primary cultures of cardiac myocytes were prepared from neonatal rat hearts using the Neonatal Heart Dissociation Kit (MACS, Germany) according to the manufacturer's protocol. Cardiomyocyte cultures were plated in gelatin‐coated plates in a plating medium containing 10% serum. After 24 h of plating, the medium was then replaced with a serum‐free maintenance medium and incubated for another 24 h before being used for further study.
For phenylephrine (PE)‐mediated cardiac hypertrophy, cardiomyocytes cultured in 6‐well plates were stimulated with PE (50 µmol) for 48 h in serum‐free medium with or without Ext.R or HBT (50 µmol) treatment. Cardiomyocytes were lysed in cell lysis buffer to isolate protein or total RNA for western blotting or PCR analysis.
Phenylephrine (PE) was obtained from Aladdin.
Phalloidin Staining and Immunofluorescence
To determine phenylephrine-induced hypertrophy, Alexa Fluor 488 Phalloidin (Cell Signaling) was used to fluorescently stain the cytoskeleton by the binding of phalloidin to F­actin. In brief, cells were fixed for 15 min using 4% paraformaldehyde then rinsed three times in PBS.
Following incubation of Alexa Fluor 488 Phalloidin and Hoechst for 15 min at room temperature, cells were rinsed once with PBS. Images were carried out using an ImageXpress Micro® Confocal High-Content Imaging System (Molecular Devices).

[2] = target: T1, SGK1-FoxO1 interaction (Rattus norvegicus, UniProt Q06226); assay: Co-immunoprecipitation of SGK1 and FoxO1 in cardiomyocytes; format: cell-based; settings: coimmunoprecipitation
T1 construct: endogenous in cells; host or cells: primary neonatal rat cardiomyocytes
T1 sequence (Q06226 1-430): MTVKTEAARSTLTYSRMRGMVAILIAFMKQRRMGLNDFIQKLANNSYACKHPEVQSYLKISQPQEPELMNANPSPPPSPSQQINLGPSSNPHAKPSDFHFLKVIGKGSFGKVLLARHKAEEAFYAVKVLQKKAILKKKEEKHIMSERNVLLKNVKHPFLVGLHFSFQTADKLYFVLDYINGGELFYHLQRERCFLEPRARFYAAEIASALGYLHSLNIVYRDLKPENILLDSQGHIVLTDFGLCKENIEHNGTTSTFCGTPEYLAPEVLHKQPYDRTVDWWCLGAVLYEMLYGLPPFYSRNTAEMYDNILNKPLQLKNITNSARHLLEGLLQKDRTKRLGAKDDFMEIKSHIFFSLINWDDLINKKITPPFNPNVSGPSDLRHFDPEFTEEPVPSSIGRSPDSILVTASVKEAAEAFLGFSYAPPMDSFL
Method: In the present study, we studied HBT's effect on protein binding between SGK1 and FoxO1 by coimmunoprecipitation (Figure 5E). […] Nevertheless, as previously reported,^[ [30] ^] […] Supportively, after transfection with the SGK1(S422D) plasmid, we consistently detected increased cytoplasmic signal of FoxO1 compared to nontransfected cells in which the majority of FoxO1 signal was distributed in the nucleus.
For the endogenous interaction assay, cardiomyocytes were treated with HBT or vehicle. After 24 h, cells were lysed with cell lysis buffer contained PMSF (Phenylmethylsulfonyl fluoride, a protease inhibitor). Protein extracts were harvested and immunoprecipitated with anti‐SGK1 or anti‐IgG antibody and protein A/G beads, and then measured by western blotting analysis.

[3] = target: T2, SGK1 (Homo sapiens, UniProt O00141); assay: KinaseProfiler Assay, AGC kinase panel; format: biochemical; parameters: purchased Eurofins Discovery (KinaseProfiler Service); settings: HBT 10 µmol; normalized by positive inhibitors
T2 sequence (O00141 1-431): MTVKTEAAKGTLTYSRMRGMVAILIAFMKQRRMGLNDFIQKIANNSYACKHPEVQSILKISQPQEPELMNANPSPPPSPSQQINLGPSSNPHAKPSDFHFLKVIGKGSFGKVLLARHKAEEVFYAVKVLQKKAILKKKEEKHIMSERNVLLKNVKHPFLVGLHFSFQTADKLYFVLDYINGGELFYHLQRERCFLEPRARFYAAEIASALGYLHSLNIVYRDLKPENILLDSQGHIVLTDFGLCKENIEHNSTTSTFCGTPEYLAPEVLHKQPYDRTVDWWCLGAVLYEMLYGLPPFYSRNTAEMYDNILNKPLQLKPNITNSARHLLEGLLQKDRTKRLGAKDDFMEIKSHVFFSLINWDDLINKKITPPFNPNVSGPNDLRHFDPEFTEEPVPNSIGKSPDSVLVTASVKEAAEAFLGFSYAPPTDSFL
Source text: 20 structurally related flavonoids of HBT were collected, which differ in the number and position of —OH groups, and examined for their effects on SGK1 activity. Based on the docking prediction, the —OH group at the C‐4’ position of HBT was required for the interaction with the key SGK1 residue D177. Therefore, the 20 flavonoids were divided into two classes according to the presence or absence of an —OH group at C‐4’ (Figure 4B). At both tested concentrations, flavonoids with an —OH group at C‐4’ (class A) inhibited SGK1 more than those without an —OH group at C‐4’ (class B) (Figure 4C). The IC50 of each compound is listed in Figure 4D; and Figure S6 (Supporting Information). […] Conversely, the absence of an ‐OH group at C‐8 led to a greater than 10‐fold reduction in flavonoid SGK1 inhibitory activity, as shown by the performance of A1 or A4. […] The inhibitory activity of HBT (10 µmol) against 28 human AGC kinases was tested by KinaseProfiler Assay (Eurofins Discovery). The percentage of HBT's inhibitory activity against each kinase was normalized by the respective positive inhibitors of AGC kinases.
The initial crystal structures of SGK1 (PDB entry: 3HDN, 3HDM, and 2R5T) were obtained from the Protein Data Bank (PDB). The prepared inhibitors were then docked by Glide with the extra precision (XP) scoring mode to estimate the binding affinity for each protein–ligand complex. […]

[4] = test system: ISO mice; assay: ISO-induced cardiac hypertrophy in mice; format: in vivo
Method: Finally, we assessed the cardioprotective effect of HBT in mice infused with the hypertrophic agonist isoproterenol (ISO). Mice were challenged with ISO for 21 days via subcutaneous injection and then were administered with 10 mg kg^−1 of HBT once per day until the mice were sacrificed (Figure 7A).
For isoproterenol (ISO)‐mediated cardiac hypertrophy, mice were randomly divided into 3 groups, control group (Ctrl), ISO group and ISO plus HBT group (HBT), 5 mg kg^−1 day^−1 ISO was given for 21 days by subcutaneous injection. The control mice were treated with 1% DMSO‐vehicle. At the same time, male C57BL/6 mice in HBT group were intraperitoneally injected with 10 mg kg^−1 d^−1 HBT diluted with a solution containing 1% DMSO and 99% saline. Echocardiography was performed on conscious mice using a Vevo 2100 system. M‐mode images of the left ventricular short axis were captured. After echocardiography evaluation, the mice were anesthetized via intraperitoneal injection of 240 mg kg^−1 pentobarbital sodium and were euthanized by excising the heart rapidly.

With O=c1c(O)c(-c2ccc(O)cc2)oc2c(O)c(O)cc(O)c12 [HBT, herbacetin] as the compound, how does the “PE-induced hypertrophy, cardiomyocyte cell area” value ([1]; 50 µmol PE 48 h, Ext.R 50 µg mL−1 or HBT 50 µmol) read?
The value was “attenuate PE‐induced hypertrophy”.

And the “transcriptional level of ANP and BNP” value ([1]; 50 µmol PE, Ext.R or HBT)?
The value was “inhibited”.

What about the “phosphorylation of SGK1 and FoxO1” value ([1]; PE stimulation, western blot) of the same compound?
The value was “significantly reduce”.

And the “protein expression of ACTA1, BNP and Myosin” value ([1]; PE stimulation, western blot)?
The value was “significantly reduced”.

And the “phosphorylation level of NF-κB p65 (Ser536)” value ([1]; PE-treated cardiomyocytes)?
Its value is “did not affect”.

And the “phosphorylation of Nedd4l” value ([1]; induced by PE)?
Its value is “reduce the phosphorylation”.

And the “direct binding between SGK1 and FoxO1” value [2]?
The value was “did not detect significant impact”.

What about the “inhibitory activity on SGK1” value [3] of the same compound?
Its value is 95%.

What about the toxicity ([4]; 10 mg kg−1 d−1 for 21 days) of the same compound?
The toxicity was “without causing any significant toxicity”.

And the “left ventricular ejection fraction (EF%) and fraction shortening (FS%)” value ([4]; ISO 5 mg kg−1 d−1 21 days, HBT 10 mg kg−1 d−1 intraperitoneally)?
The value was “increased”.

And the “decreased Bcl-2 and MnSOD levels” value ([4]; ISO mice)?
Its value is “almost completely reversed”.

And the “serum NT-proBNP” value ([4]; ISO mice, ELISA)?
The value was “decreased level”.

And the “heart weight/tibial length (HW/TL)” value ([4]; ISO mice, HBT 10 mg kg−1)?
The value was “reduce the HW/TL level”.

And the “left ventricular volume (LV Vol;d and LV Vol;s)” value ([4]; ISO mice, HBT 10 mg kg−1)?
Its value is “decreased”.

And the “accumulation of collagen fibrosis” value ([4]; ISO mice, Masson's staining)?
The value was “reduced”.

What about the “expression of p-SGK1, α-SMA and Col-3” value ([4]; ISO mice, western blot) of the same compound?
Its value is “reduced expression”.

What about the “FoxO1 phosphorylation, STIM1 and Orai1 protein expression in heart tissue” value ([4]; ISO mouse model) of the same compound?
The value was “significantly decreased”.

What about the “level of HO-1 and Nrf2 in heart tissue” value ([4]; ISO mouse model) of the same compound?
Its value is “increased”.
